# Measured values: patent publication US20230190650A1 (The University of North Carolina at Chapel Hill, priority 2020, published 2023)
# Where a name gives a salt, the structure may show the parent alone.
# Experiments:
# [1] = Partitioning of small molecules between aqueous phase and oily eutectic; type: physicochemical; settings: after 10 minutes of mixing; 0.5 g/L bupivacaine-HCl, 5 g/L chlorobutanol, 25 g/L benzyl alcohol
# [2] = Method: (§1) Identical samples were prepared with 0.5 g/L EDTA added as preservative). These aliquots were quantified by HPLC, alongside aliquots of the formulation (both with and without EDTA) treated in the same manner, which were dissolved in ethanol immediately before quantification.
# (§2) The column was a YMC-Pack Pro C18 column (3 µm particle size, 120 Å pore size, 4.6 x 150 mm) and mobile phase was 30 mM potassium phosphate, 0.16% trimethylamine, adjusted to pH 4.9 with phosphoric acid, 30% Acetonitrile.
# (§3) “Fridge” samples stored at 4° C., “Heat” at 40° C., “Light” on bench in clear vials. An “E” after the storage condition indicates samples with 5 g/L EDTA added as preservative.
# [3] = Stability of drugs in the anesthetic formulation (HPLC); type: physicochemical; settings: eutectic emulsion formulation
# Method: as §1, §2, §3
# [4] = In vitro dissolution testing of LBB-111 (release into PBS from 3D printed socket); type: physicochemical; settings: from LBB-111; PBS pH 7.4, 37° C.
# Method: As a first step to approximate release properties of LBB-111, we performed in vitro dissolution testing under various conditions. […] Mixing was accomplished using the smaller “mini” spin paddles at 59 rpm. Dissolution media [900 mL Phosphate buffered saline (PBS), pH 7.4] was equilibrated at 37° C. overnight before the start of a run. To mimic a human molar socket, cylindrical chambers with internal dimensions approximately 1 cm tall and 1 cm in diameter, with a high infill base to give the socket weight and stability were 3D printed at the UNC BeAM […] using an Ultimaker 3. Sockets were filled to the rim with formulation using an 18 g needle, and the formulation weight (around 0.8 g for these sockets) was recorded. The flat base of the socket was placed on the bottom of each dissolution chamber and mixing initiated. […] Referring now to FIG. 6, the graph illustrates drug released into PBS medium plotted as the fraction of the total that was present in the formulation at the start (% released). […] Formulation samples were dissolved in 19-times their weight (final conc. 5% wt) 200-proof ethanol, the ethanol dissolved samples were then diluted 5-fold into distilled water, and 10 μL of this dilution was injected.
# [5] = cited from earlier work; for logD7.4: pH 7.4
# [6] = local anesthetic activity profile; cited from earlier work
SMILES,presence in the aqueous phase after mixing with the eutectic [1],"time to becoming undetectable in solution ([2]; saliva analogue buffer, light or heat (40° C.) conditions, without EDTA)",degradation in the formulation without EDTA [3],relative release rate [4],degradation in solution [2],pKa [5],logD7.4 [5],Duration [6],Onset [6],Potency [6],"degradation in solution, Heat sample with EDTA [2]",logP [5]
"CCCCN1CCCCC1C(=O)Nc1c(C)cccc1C (stereo not shown) [bupivacaine-HCl, bupivacaine hydrochloride]",undetectable,,,,,,,,,,,
CCN(CC)CC(=O)Nc1c(C)cccc1C [Lidocaine],,,,,almost undetectable,,,Moderate,Fast,Medium,some lidocaine degradation,

# Further lines, with some results ahead:
presence in the aqueous phase after mixing with the eutectic [1],"time to becoming undetectable in solution ([2]; saliva analogue buffer, light or heat (40° C.) conditions, without EDTA)",degradation in the formulation without EDTA [3],relative release rate [4],SMILES,degradation in solution [2],pKa [5],logD7.4 [5],Duration [6],Onset [6],Potency [6],"degradation in solution, Heat sample with EDTA [2]",logP [5]
,≤ 10 days,lack of benzocaine degradation,fastest,CCOC(=O)c1ccc(N)cc1 [Benzocaine],almost undetectable,2.8,1.86,Short,Fast,Low,,
undetectable,,,,OCc1ccccc1 [benzyl alcohol],,,,,,,,
,,,slowest,CCCCN1CCCCC1C(=O)Nc1c(C)cccc1C (stereo not shown) [Bupivacaine],,,2.39,Long,Moderate,High,,3.41
